The structures appear in SMILES notation.

Series [1] deals with recombinant FAD-GDH (rAT-FAD-GDH) derived from Aspergillus terreus. Nature of the series: Thermal stabilization effect of stabilizing agents on rAT-FAD-GDH in solution (Example 9). The format is physicochemical. To be noted: for thermal stabilization effect on FAD-GDH (in words): rAT-FAD-GDH, 50° C. for 15 minutes, Example 9; for Residual activity ratio (%) / GLD activity value (U/ml) 50° C., 15 min: Table 10, buffer 50 mM K-PB, stabilizer at each final concentration described in Table 1; for Residual activity ratio (%): 50° C., 15 min versus 4° C. As for the experimental part: (§1) The reaction reagent (3 mL) is preliminarily heated at 37° C. for 5 minutes. The GDH solution (0.1 mL) is added and gently mixed, subsequently the change of absorbance at 600 nm is recorded for 5 minutes using the spectrophotometer controlled to 37° C. using water as the control, and the change of absorbance per one minute (ΔODTEST) is calculated from the linear portion of the record. The solvent in which GDH will be dissolved in place of the blinded GDH solution is added to the reagent mixture, and the change of absorbance (ΔODBLANK) per one minute is measured. The GDH activity is calculated from these values according to the following formula. One unit (U) in the GDH activity is defined as the amount of the enzyme which reduces […] DCPIP for one minute in the presence of 200 mM D-glucose.
Two tubes in which each stabilizing agent described in Table 1 had been added at each final concentration to 0.9 mL of this enzyme solution to make the total volume 1.0 mL were prepared.
In two tubes, one tube was stored at 4° C. and another tube was treated at 50° C. for 15 minutes. Then, the FAD-GDH activity in each tube was measured. The enzyme activity in the tube stored at 4° C. was made 100, and comparing with it, the activity value after being treated at 50° C. for 15 minutes was calculated as the residual activity ratio (%).

For series [2], the system named is recombinant FAD-GDH (rAO-FAD-GDH) derived from Aspergillus oryzae. Nature of the series: Thermal stabilization effect of stabilizing agents on rAO-FAD-GDH in solution (Examples 3-6). The format is physicochemical. Conditions: for thermal stabilization effect on FAD-GDH (in words): 50° C. for 15 minutes, Example 3. On the procedure:
Enhancement of the thermal stability referred to herein means increasing of a residual ratio (%) of the GDH enzyme kept after giving the treatment with heat at a certain temperature for a certain time period to the composition comprising the GDH enzyme. In the present invention, the activity in the sample stored at 4° C. which is nearly completely kept is made 100%, this is compared with the activity in the GDH solution after giving the treatment with heat at a certain-temperature for a certain time period, and the residual ratio of the enzyme is calculated.
In the method for measuring the activity described in the method for measuring the GDH enzyme activity described later, an activity value (a) of GDH in the solution stored at 4° C. and an activity value (b) of GDH after giving the treatment with heat at a certain temperature for a certain time period were measured, a relative value[(b)/(a)×100] when the activity value (a) was made 100 was calculated. This relative value was made the residual ratio (%). Comparing the presence with the absence of the added compound, when the residual ratio was increased by the addition of the compound, it was determined that the thermal stability was enhanced.
In the present invention, the activity of FAD-dependent GDH is measured as follows.
The reaction-reagent is made by mixing 15.6 mL of the PIPES buffer, 0.2 mL of the DCPIP solution and 4 mL of the D-glucose solution.
as §1, with “D-glucose. Activity (U/mL)=[−(ΔODTEST−ΔODBLANK)×3.0×dilution scale]/(16.3×0.1×1.0) In the above formula, 3.0 represents a liquid amount (mL) of the reaction reagent+the enzyme solution, 16.3 represents a millimolar molecular absorbance coefficient (cm^2/μmol) in the condition for measuring this enzyme, 0.1 represents the liquid amount of the enzyme solution (mL) and 1.0 represents a light path length (cm) of the cell.” for “D-glucose.”
The study was performed in accordance with the method for measuring the FAD-GDH activity in Test Example 1 described above.
First, 50 mL of an enzyme solution obtained by dissolving the recombinant FAD-GDH (rAO-FAD-GDH)-derived from Aspergillus oryzae obtained in Example 1 at about 2 U/mL in an enzyme dilution solution (50 mM potassium phosphate buffer, pH 5.5, 0.1% Triton X-100) was prepared. Two tubes in which each stabilizing agent described in Table 1 had been added at each final concentration to 0.9 mL of this enzyme solution to make the total volume 1.0 mL were prepared.
In two tubes, one tube was stored at […] and another tube was treated at 50° C. for 15 minutes. Then, the FAD-GDH activity in each tube was measured. The enzyme activity in the tube stored at 4° C. was made 100, and comparing with it, the activity value after being treated at 50° C. for 15 minutes was calculated as the residual activity ratio (%).
The method was in accordance with Example 3 described above.
The methods were in accordance with Example 3 above.

The mark [3] stands for this setting: stabilizer final concentration 1%, rAO-FAD-GDH about 2 U/mL, 50 mM potassium phosphate buffer pH 5.5, 0.1% Triton X-100, 4° C. sample = 100.
Where [4] appears, read: stabilizer final concentration 0.10%, rAO-FAD-GDH, pH 5.5.

As to `O=C([O-])CC(O)(CC(=O)[O-])C(=O)[O-].[Na+].[Na+].[Na+]` [Trisodium citrate], the “thermal stabilization effect on FAD-GDH (in words)” value (shortened to “thermal stabilization effect”) in series [1] and in series [2] (rAO-FAD-GDH) was “high effect” each time.

With `OC[C@H]1O[C@@H]2O[C@H]3[C@H](O)[C@@H](O)[C@@H](O[C@H]4[C@H](O)[C@@H](O)[C@@H](O[C@H]5[C@H](O)[C@@H](O)[C@@H](O[C@H]6[C@H](O)[C@@H](O)[C@@H](O[C@H]7[C@H](O)[C@@H](O)[C@@H](O[C@H]1[C@H](O)[C@H]2O)O[C@@H]7CO)O[C@@H]6CO)O[C@@H]5CO)O[C@@H]4CO)O[C@@H]3CO` [a-cyclodextrin], in series [1], the “Residual activity ratio (%)” value amounted to 1.5% and the “GLD activity value (U/ml) 50° C., 15 min” value turned out to be 0.044 U/ml. In addition, the “Residual activity ratio (%) after treatment at 50° C., 15 min” value (shortened to “Residual activity ratio (%) … 15 min”) in series [2] (setting [3]) is 44.1%.

On to `[Cl-].[Na+]` [Sodium chloride], for which the “thermal stabilization effect” value in series [1] and in series [2] (rAO-FAD-GDH) was “high effect” each time.

As to `O=C[C@H](O)[C@@H](O)[C@H](O)[C@H](O)C(=O)[O-].[Na+]` [D-sodium glucuronate], in series [1], the “Residual activity ratio (%)” value was determined as 10.0%; the “GLD activity value (U/ml) 50° C., 15 min” value was found to be 0.279 U/ml; the “thermal stabilization effect” value was “high effect”. Besides, the “thermal stabilization effect” value in series [2] (rAO-FAD-GDH) was “high effect”. Moreover, the “Residual activity ratio (%) … 15 min” value in series [2] (setting [3]) stood at 56.2%.

On to `O=C(CO)[C@@H](O)[C@H](O)[C@H](O)CO` [D-(−)-fructose], for which, in series [1], the “Residual activity ratio (%)” value is 2.7%; the “GLD activity value (U/ml) 50° C., 15 min” value was 0.075 U/ml; the “thermal stabilization effect” value is on record as “high effect”. The “thermal stabilization effect” value in series [2] (rAO-FAD-GDH) is reported as “high effect”. In series [2] (setting [3]), the “Residual activity ratio (%) … 15 min” value is on record as 25.9%.

For `O=C(O)[C@@H]1CCCN1` [L-(−)-proline], in series [1], the “Residual activity ratio (%)” value was 1.8% and the “GLD activity value (U/ml) 50° C., 15 min” value stood at 0.048 U/ml. For the same compound, the “Residual activity ratio (%) … 15 min” value in series [2] (setting [3]) came out at 25.2%.

As to `N[C@@H](CC(=O)O)C(=O)O` [L-aspartic acid], in series [1], the “Residual activity ratio (%)” value worked out at 0.2% and the “GLD activity value (U/ml) 50° C., 15 min” value stood at 0.005 U/ml. Moreover, the “Residual activity ratio (%) … 15 min” value in series [2] (setting [3]) came out at 12.2%.

As for `O=C(O)CCCC(=O)O` [Glutaric acid], the “thermal stabilization effect” value in series [1] and in series [2] (rAO-FAD-GDH) was “high effect” each time.

For `N[C@H](Cc1ccccc1)C(=O)O` [D-phenylalanine], in series [1], the “Residual activity ratio (%)” value came to 2.3% and the “GLD activity value (U/ml) 50° C., 15 min” value is 0.062 U/ml. Further, the “Residual activity ratio (%) … 15 min” value in series [2] (setting [4]) is 23.6%.

Take `C[C@H](N)C(=O)O` [D-a-alanine]: in series [1], the “Residual activity ratio (%)” value is given as 3.2%; the “GLD activity value (U/ml) 50° C., 15 min” value turned out to be 0.09 U/ml; the “thermal stabilization effect” value is listed as “high effect”. Besides, in series [2] (rAO-FAD-GDH), the “thermal stabilization effect” value was “high effect”. The “Residual activity ratio (%) … 15 min” value in series [2] (setting [3]) came out at 27.1%.

As for `OC[C@H]1O[C@@](CO)(O[C@H]2O[C@H](CO)[C@@H](O)[C@H](O)[C@H]2O)[C@@H](O)[C@@H]1O` [Sucrose], in series [1], the “Residual activity ratio (%)” value is on record as 2.1%; the “GLD activity value (U/ml) 50° C., 15 min” value came out at 0.058 U/ml; the “thermal stabilization effect” value is recorded as “high effect”. Moreover, in series [2] (rAO-FAD-GDH), the “thermal stabilization effect” value is recorded as “high effect”. In addition, in series [2] (setting [3]), the “Residual activity ratio (%) … 15 min” value was determined as 44.1%.

Turning to `O=C1O[C@H](CO)[C@@H](O)[C@H](O)[C@H]1O` [Glucono-1,5-lactone], in series [1], the “Residual activity ratio (%)” value is 0.1% and the “GLD activity value (U/ml) 50° C., 15 min” value came out at 0.003 U/ml. Moreover, in series [2] (setting [3]), the “Residual activity ratio (%) … 15 min” value is reported as 0.0%.

Turning to `N[C@@H](Cc1ccccc1)C(=O)O` [L-phenylalanine], in series [1], the “Residual activity ratio (%)” value is recorded as 1.2% and the “GLD activity value (U/ml) 50° C., 15 min” value is reported as 0.031 U/ml. For the same compound, the “Residual activity ratio (%) … 15 min” value in series [2] (stabilizer final concentration 0.20%, rAO-FAD-GDH, pH 5.5) is 22.3%.

Consider `O=C[C@@H](O)[C@H](O)[C@H](O)CO` [D-(−)-arabinose], for which, in series [1], the “Residual activity ratio (%)” value was 2.5%; the “GLD activity value (U/ml) 50° C., 15 min” value is 0.069 U/ml; the “thermal stabilization effect” value is on record as “high effect”. Besides, the “thermal stabilization effect” value in series [2] (rAO-FAD-GDH) is “high effect”. For the same compound, in series [2] (setting [3]), the “Residual activity ratio (%) … 15 min” value is recorded as 23.0%.

Consider `N[C@H](CCC(=O)O)C(=O)O` [D-glutamic acid], for which, in series [1], the “Residual activity ratio (%)” value amounted to 5.6%; the “GLD activity value (U/ml) 50° C., 15 min” value was determined as 0.149 U/ml; the “thermal stabilization effect” value is “high effect”. Moreover, the “thermal stabilization effect” value in series [2] (rAO-FAD-GDH) is reported as “high effect”. For the same compound, the “Residual activity ratio (%) … 15 min” value in series [2] (setting [4]) is given as 23.2%.

In the case of `OC[C@H]1O[C@H](OCC2O[C@@H](O)[C@H](O)[C@@H](O)[C@@H]2O)[C@H](O)[C@@H](O)[C@H]1O` (stereo partly drawn) [a-D-(+)-melibiose], in series [1], the “Residual activity ratio (%)” value is recorded as 7.3%; the “GLD activity value (U/ml) 50° C., 15 min” value came to 0.197 U/ml; the “thermal stabilization effect” value is on record as “high effect”. Further, the “thermal stabilization effect” value in series [2] (rAO-FAD-GDH) is given as “high effect”. In addition, the “Residual activity ratio (%) … 15 min” value in series [2] (setting [3]) came to 59.0%.

Take `N=C(N)NCCC[C@H](N)C(=O)O` [L-arginine]: in series [1], the “Residual activity ratio (%)” value was found to be 0.1% and the “GLD activity value (U/ml) 50° C., 15 min” value is 0.001 U/ml. The “Residual activity ratio (%) … 15 min” value in series [2] (setting [3]) is given as 1.1%.

For `O=C(O)C1OC(O)C(O)C(O)C1O` [D-a-galacturonic acid], in series [1], the “Residual activity ratio (%)” value worked out at 0.2% and the “GLD activity value (U/ml) 50° C., 15 min” value is 0.004 U/ml. Moreover, in series [2] (setting [3]), the “Residual activity ratio (%) … 15 min” value was 0.0%.

With `N[C@@H](Cc1c[nH]cn1)C(=O)O` [L-histidine], in series [1], the “Residual activity ratio (%)” value was 0.5% and the “GLD activity value (U/ml) 50° C., 15 min” value stood at 0.015 U/ml. Also, the “Residual activity ratio (%) … 15 min” value in series [2] (stabilizer final concentration 0.25%, rAO-FAD-GDH, pH 5.5) was determined as 11.4%.

In the case of `CNCC(=O)O` [Sarcosine], in series [1], the “Residual activity ratio (%)” value came to 3.0%; the “GLD activity value (U/ml) 50° C., 15 min” value stood at 0.081 U/ml; the “thermal stabilization effect” value was “high effect”. In series [2] (rAO-FAD-GDH), the “thermal stabilization effect” value is given as “high effect”. In addition, the “Residual activity ratio (%) … 15 min” value in series [2] (setting [3]) turned out to be 25.2%.

With `O=C(O)[C@@H]1CCCN1` [proline], the “thermal stabilization effect” value in series [1] and in series [2] (rAO-FAD-GDH) was “high effect” in each case.

(Values after US20080090278A1, “METHOD FOR ENHANCING STABILITY OF A COMPOSITION COMPRISING SOLUBLE GLUCOSE DEHYDROGENASE (GDH)” (TOYO BOSEKI KABUSHIKI KAISHA, priority 2006, published 2008).)
